These are literature values, as cited in patent US20020137728A1, “Topical oral care compositions” (Oraceutical LLC, priority 2001, published 2002).

The structures appear in SMILES notation. Bounds are passed on as bounds.

Series [1] deals with serum alkaline phosphatase enzyme. Particulars: single dose intraperitoneally, Wistar rats with artificially induced periodontal lesions.
For series [2] the following is noted: peroxide tooth whitening composition on tooth surface.

Regarding `O=C1O[C@H]([C@@H](O)CO)C(O)=C1O` [ascorbic acid], the “serum alkaline phosphatase enzyme” value in series [1] is “increase”.

With `OO` [hydrogen peroxide], the “time to reach vital pulp tissue from initial contact on the tooth surface” value in series [2] is not above 15 min.
